Target: T1, human P2X4 (Homo sapiens, UniProt Q99571)
T1 sequence (Q99571 1-388): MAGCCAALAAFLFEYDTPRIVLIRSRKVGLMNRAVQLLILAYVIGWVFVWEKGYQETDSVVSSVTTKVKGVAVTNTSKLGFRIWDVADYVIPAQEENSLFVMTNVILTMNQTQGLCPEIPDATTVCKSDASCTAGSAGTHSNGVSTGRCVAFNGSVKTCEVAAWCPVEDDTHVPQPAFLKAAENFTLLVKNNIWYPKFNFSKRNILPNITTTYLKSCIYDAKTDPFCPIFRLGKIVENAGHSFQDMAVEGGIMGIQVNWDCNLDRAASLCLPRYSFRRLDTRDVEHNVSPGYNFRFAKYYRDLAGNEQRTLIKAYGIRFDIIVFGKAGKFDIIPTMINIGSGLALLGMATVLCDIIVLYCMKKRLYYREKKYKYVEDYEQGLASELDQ
Test: Human P2X4 HEK Cell FLIPR Assay
Format: cell-based
Conditions: agonist Bz-ATP at EC80; for Emax: HEK293, HEK293 cells, percentage of maximal inhibition, read-out: Human P2X4 HEK Cells (FLIPR Assay) avg Efficacy [%]; for IC50: HEK293 cells, individual values listed where some fall outside detection range
Procedure, shortened: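 Calcium flux read by FLIPR for 120 sec after Bz-ATP challenge at EC80 (established each assay day), following 30 min room-temperature compound preincubation in dye-loaded stable human P2X4 HEK293 cells. Peak RFU over basal normalized to agonist control; IC50, maximal inhibition and Hill coefficient from triplicate means.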

| Structure (SMILES) | Emax [%] | IC50 [nM] |
| --- | --- | --- |
| CNc1ncc(-c2ccc(NC(=O)Cc3ccccc3Cl)cc2S(N)(=O)=O)cn1 [Example 301, 2-(2-Chlorophenyl)-N-{4-[2-(methylamino)pyrimidin-5-yl]-3-sulfamoylphenyl}acetamide] | 74 | 10 |
| NS(=O)(=O)c1cc(NC(=O)Cc2cccc(Cl)c2)ccc1-n1cc(F)cn1 [Example 148, 2-(3-Chlorophenyl)-N-[4-(4-fluoro-1H-pyrazol-1-yl)-3-sulfamoylphenyl]acetamide] | 63 | 132 |
| N#Cc1ccc(Cl)c(CC(=O)Nc2ccc(-n3cc(C(F)(F)F)cn3)c(S(N)(=O)=O)c2)c1 [Example 243, 2-(2-Chloro-5-cyanophenyl)-N-{3-sulfamoyl-4-[4-(trifluoromethyl)-1H-pyrazol-1-yl]-phenyl}acetamide] | 87 | 496 |
| NS(=O)(=O)c1cc(NC(=O)Cc2ccccc2F)ccc1-n1cc(CC(F)(F)F)cn1 [Example 519, 2-(2-Fluorophenyl)-N-{3-sulfamoyl-4-[4-(2,2,2-trifluoroethyl)-1H-pyrazol-1-yl]phenyl}acetamide] | 82 | 105 |
| N#Cc1cnn(-c2ccc(NC(=O)Cc3ccc(F)c(F)c3)cc2S(N)(=O)=O)c1 [Example 189, N-[4-(4-Cyano-1H-pyrazol-1-yl)-3-sulfamoylphenyl]-2-(3,4-difluorophenyl)acetamide] | 60 | 199 |
| Cc1ccccc1CC(=O)Nc1ccc(-n2cc(C(F)(F)F)cn2)c(S(N)(=O)=O)c1 [Example 123, 2-(2-Methylphenyl)-N-{3-sulfamoyl-4-[4-(trifluoromethyl)-1H-pyrazol-1-yl]phenyl}-acetamide] | 79 | 109 |
| N#Cc1cnn(-c2cc(C(F)(F)F)c(NC(=O)Cc3cccc(C(F)(F)F)c3Cl)cc2S(N)(=O)=O)c1 [Example 488, 2-[2-Chloro-3-(trifluoromethyl)phenyl]-N-[4-(4-cyano-1H-pyrazol-1-yl)-5-sulfamoyl-2-(trifluoromethyl)phenyl]acetamide] | 78 | 2330 |
| NS(=O)(=O)c1cc(NC(=O)Cc2ccccc2C(F)(F)F)ccc1-n1cc(C(F)(F)F)cn1 [Example 22, N-{3-Sulfamoyl-4-[4-(trifluoromethyl)-1H-pyrazol-1-yl]phenyl}-2-[2-(trifluoromethyl)-phenyl]acetamide] | 76 | 224 |
| CC(C(=O)Nc1ccc(-n2cc(F)cn2)c(S(N)(=O)=O)c1)c1c(F)cccc1F (stereo not shown) [Example 171, 2-(2,6-Difluorophenyl)-N-[4-(4-fluoro-1H-pyrazol-1-yl)-3-sulfamoylphenyl]-propanamide] | 90 | 2240 |
| CCNc1ncc(-c2ccc(NC(=O)Cc3ccccc3Cl)cc2S(N)(=O)=O)cn1 [Example 312, 2-(2-Chlorophenyl)-N-{4-[2-(ethylamino)pyrimidin-5-yl]-3-sulfamoylphenyl}-acetamide] | 69 | 37 |
| NS(=O)(=O)c1cc(NC(=O)Cc2cc(Cl)ccc2Cl)ccc1-n1cc(F)cn1 [Example 163, 2-(2,5-Dichlorophenyl)-N-[4-(4-fluoro-1H-pyrazol-1-yl)-3-sulfamoylphenyl]acetamide] | 89 | 93 |
| Cc1csc(-c2ccc(NC(=O)Cc3ccccc3Cl)cc2S(N)(=O)=O)n1 [Example 425, 2-(2-Chlorophenyl)-N-[4-(4-methyl-1,3-thiazol-2-yl)-3-sulfamoylphenyl]acetamide] | 74 | 50 |
| COc1ccc(Cl)c(CC(=O)Nc2ccc(-n3cc(Cl)cn3)c(S(N)(=O)=O)c2)c1 [Example 101, 2-(2-Chloro-5-methoxyphenyl)-N-[4-(4-chloro-1H-pyrazol-1-yl)-3-sulfamoylphenyl]-acetamide] | 83 | 202 |
| NS(=O)(=O)c1cc(NC(=O)Cc2ccccc2C(F)(F)F)ccc1-c1cncc(C(F)(F)F)c1 [Example 304, N-{3-Sulfamoyl-4-[5-(trifluoromethyl)pyridin-3-yl]phenyl}-2-[2-(trifluoromethyl)phenyl]acetamide] | 65 | 73 |
| NS(=O)(=O)c1cc(NC(=O)Cc2cc(F)ccc2Cl)ccc1-n1cc(F)cn1 [Example 168, 2-(2-Chloro-5-fluorophenyl)-N-[4-(4-fluoro-1H-pyrazol-1-yl)-3-sulfamoylphenyl]-acetamide] | 75 | 70 |
| NS(=O)(=O)c1cc(NC(=O)Cc2ccccc2Cl)ccc1-c1csc(C2CC2)n1 [Example 431, 2-(2-Chlorophenyl)-N-[4-(2-cyclopropyl-1,3-thiazol-4-yl)-3-sulfamoylphenyl]acetamide] | 83 | 2880 |

| Structure (SMILES) | Emax [%] | IC50 [nM] |
| --- | --- | --- |
| CC1(Cn2cc(-c3ccc(NC(=O)Cc4ccccc4Cl)cc3S(N)(=O)=O)cn2)COC1 [Example 276, 2-(2-Chlorophenyl)-N-(4-{1-[(3-methyloxetan-3-yl)methyl]-1H-pyrazol-4-yl}-3-sulfamoylphenyl)acetamide] | 96 | 195 |
| NS(=O)(=O)c1cc(NC(=O)Cc2ccc(F)cc2Cl)ccc1-n1cc(C(F)(F)F)cn1 [Example 127, 2-(2-Chloro-4-fluorophenyl)-N-{3-sulfamoyl-4-[4-(trifluoromethyl)-1H-pyrazol-1-yl]phenyl}acetamide] | 85 | 209 |
| NS(=O)(=O)c1cc(NC(=O)Cc2ccc(C(F)F)cc2)ccc1-c1ccc(Cl)nc1 [Example 473, N-[4-(6-Chloropyridin-3-yl)-3-sulfamoylphenyl]-2-[4-(difluoromethyl)phenyl]acetamide] | 93 | 530 |
| NS(=O)(=O)c1cc(NC(=O)Cc2ccccc2Cl)ccc1-c1ccc(Cl)cn1 [Example 319, 2-(2-Chlorophenyl)-N-[4-(5-chloropyridin-2-yl)-3-sulfamoylphenyl]acetamide] | 73 | 7280 |
| Cc1ncc(-c2ccc(NC(=O)Cc3ccccc3Cl)cc2S(N)(=O)=O)cn1 [Example 313, 2-(2-Chlorophenyl)-N-[4-(2-methylpyrimidin-5-yl)-3-sulfamoylphenyl]acetamide] | 82 | 713 |
| N#Cc1cn(-c2ccc(NC(=O)Cc3ccccc3Cl)cc2S(N)(=O)=O)nc1O [Example 500, 2-(2-Chlorophenyl)-N-[4-(4-cyano-3-hydroxy-1H-pyrazol-1-yl)-3-sulfamoylphenyl]acetamide] | 40 | > 25000 |
| NS(=O)(=O)c1cc(NC(=O)Cc2ccccc2Cl)ccc1-c1cnn(CCN2CCCC2)c1 [Example 281, 2-(2-Chlorophenyl)-N-(4-{1-[2-(pyrrolidin-1-yl)ethyl]-1H-pyrazol-4-yl}-3-sulfamoyl-phenyl)acetamide] | 76 | 481 |
| NS(=O)(=O)c1cc(NC(=O)Cc2ccc(Cl)cc2Cl)ccc1-n1cc(F)cn1 [Example 178, 2-(2,4-Dichlorophenyl)-N-[4-(4-fluoro-1H-pyrazol-1-yl)-3-sulfamoylphenyl]acetamide] | 70 | 40 |
| N#Cc1cc(NC(=O)Cc2ccccc2Cl)cc(S(N)(=O)=O)c1-n1cc(F)cn1 [Example 247, 2-(2-Chlorophenyl)-N-[3-cyano-4-(4-fluoro-1H-pyrazol-1-yl)-5-sulfamoyl-phenyl]acetamide] | 64 | 69 |
| COCCn1cc(-c2ccc(NC(=O)Cc3ccc(F)cc3Cl)cc2S(N)(=O)=O)cn1 [Example 277, 2-(2-Chloro-4-fluorophenyl)-N-{4-[1-(2-methoxyethyl)-1H-pyrazol-4-yl]-3-sulfamoyl-phenyl}acetamide] | 90 | 186 |
| N#Cc1cnn(-c2ccc(NC(=O)Cc3ccc(F)cc3Cl)cc2S(N)(=O)=O)c1 [Example 202, 2-(2-Chloro-4-fluorophenyl)-N-[4-(4-cyano-1H-pyrazol-1-yl)-3-sulfamoylphenyl]-acetamide] | 90 | 48 |
| NS(=O)(=O)c1cc(NC(=O)Cc2ccccc2Cl)ccc1-n1ncnc1C1CC1 [Example 37, 2-(2-Chlorophenyl)-N-[4-(5-cyclopropyl-1H-1,2,4-triazol-1-yl)-3-sulfamoyl-phenyl]acetamide] | 81 | 848 |
| NS(=O)(=O)c1cc(NC(=O)Cc2ccccc2Cl)ccc1-c1cnc(C(F)(F)F)s1 [Example 483, 2-(2-Chlorophenyl)-N-{3-sulfamoyl-4-[2-(trifluoromethyl)-1,3-thiazol-5-yl]phenyl}acetamide] | 86 | 71 |
| NS(=O)(=O)c1cc(NC(=O)Cc2ccccc2Cl)ccc1-c1c[nH]c(C(=O)C(F)F)c1 [Example 528, 2-(2-Chlorophenyl)-N-{4-[5-(difluoroacetyl)-1H-pyrrol-3-yl]-3-sulfamoylphenyl}acetamide] | 95 | 42 |
| NS(=O)(=O)c1cc(NC(=O)Cc2ccc(F)cc2Cl)ccc1-n1cnc(C(F)(F)F)n1 [Example 56, 2-(2-Chloro-4-fluorophenyl)-N-{3-sulfamoyl-4-[3-(trifluoromethyl)-1H-1,2,4-triazol-1-yl]phenyl}acetamide] | 70 | 121 |
| N#Cc1cnn(-c2ccc(NC(=O)Cc3ccccc3Cl)c(C(F)(F)F)c2S(N)(=O)=O)c1 [Example 487, 2-(2-Chlorophenyl)-N-[4-(4-cyano-1H-pyrazol-1-yl)-3-sulfamoyl-2-(trifluoromethyl)phenyl]acetamide] | 45 | > 25000 |
